Patent US11214538B2, “Farnesoid X receptor agonists and uses thereof” (Metacrine, Inc., priority 2015, dated 2022)

Biological target: T1, hFXR (Homo sapiens, UniProt Q96RI1)
T1 construct: expressed in transfected cells; host or cells: CV-1 cells
T1 sequence (Q96RI1 1-486): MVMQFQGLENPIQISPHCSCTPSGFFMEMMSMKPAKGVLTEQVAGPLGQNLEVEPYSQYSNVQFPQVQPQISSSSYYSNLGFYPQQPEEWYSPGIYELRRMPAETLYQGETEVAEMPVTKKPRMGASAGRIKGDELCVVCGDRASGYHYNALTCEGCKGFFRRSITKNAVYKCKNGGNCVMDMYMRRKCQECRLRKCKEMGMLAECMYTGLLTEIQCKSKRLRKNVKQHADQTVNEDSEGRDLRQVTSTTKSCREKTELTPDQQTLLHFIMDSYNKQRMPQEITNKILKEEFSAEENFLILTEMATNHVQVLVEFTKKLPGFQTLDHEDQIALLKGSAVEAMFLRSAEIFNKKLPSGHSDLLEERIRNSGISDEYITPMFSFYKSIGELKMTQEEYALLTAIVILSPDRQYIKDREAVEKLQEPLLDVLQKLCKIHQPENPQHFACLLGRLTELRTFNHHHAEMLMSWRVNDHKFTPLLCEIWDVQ
T1 sequence (P19793 1-462 partner): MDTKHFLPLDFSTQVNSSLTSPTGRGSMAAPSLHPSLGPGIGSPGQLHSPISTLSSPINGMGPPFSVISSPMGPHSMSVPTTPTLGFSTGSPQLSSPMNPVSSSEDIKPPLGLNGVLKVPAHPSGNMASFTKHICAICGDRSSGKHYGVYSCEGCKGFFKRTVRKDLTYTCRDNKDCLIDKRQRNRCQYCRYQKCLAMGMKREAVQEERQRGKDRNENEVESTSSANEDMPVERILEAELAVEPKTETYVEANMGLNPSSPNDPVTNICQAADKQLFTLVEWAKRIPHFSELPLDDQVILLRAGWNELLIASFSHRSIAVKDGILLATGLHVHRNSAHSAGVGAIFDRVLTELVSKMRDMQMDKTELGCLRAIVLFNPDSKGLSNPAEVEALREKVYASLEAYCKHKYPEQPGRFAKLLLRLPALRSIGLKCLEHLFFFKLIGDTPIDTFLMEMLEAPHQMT
Assay: In Vitro FXR Assay (TK), luciferase reporter in transfected CV-1 cells
Format: cell-based
Details: CV-1 cells transfected with hFXR, hRXR, TK-ECRE-luc; 18 hrs incubation; luminescence; compounds with a maximum efficacy of <25% of the Fexaramine control classified as '+'
Procedure: Example B-2: In Vitro FXR Assay (TK)
CV-1 cells were seeded at a density of 2,000,000 cells in a T175 flask with DMEM+10% charcoal double-stripped FBS and incubated at 37° C. in 5% CO2 for 18 h (O/N).
After 18 h of incubation, the medium in the T175 flask was changed with fresh DMEM+10% charcoal super-stripped serum. In a polypropylene tube, 2500 μL OptiMEM (Life Technologies, Cat #31985-062) was combined with expression plasmids for hFXR, hRXR, TK-ECRE-luc and pCMX-YFP. The tube was then briefly vortexed and incubated at room temperature for 5 minutes. Transfection reagent (X-tremeGENE HP from Roche, Cat #06 366 236 001) was added to the OptiMEM/plasmid mixture vortexed and incubated at room temperature for 20 minutes. Following incubation, the transfection reagent/DNA mixture complex was added to cells in the T175 flask and the cells were incubated at 37° C. in 5% CO2 for 18 h (O/N).
Compounds were serially diluted in DMSO and added to transfected CV-1 cells. The cells were then incubated for 18 hrs. The next day cells were lysed and examined for luminescence.

Row | Structure (SMILES) | EC50 [µM]
1 | COc1cc(-c2cccc(N(Cc3ccc(-c4ccc(N(C)C)cc4)cc3)C(=O)C3CCCCC3)c2)sn1 [Compound 43, N-((4′-(Dimethylamino)-[1,1′-biphenyl]-4-yl)methyl)-N-(3-(3-methoxyisothiazol-5-yl)phenyl)cyclohexanecarboxamide] | ≤ 3
2 | COc1ccc([C@H]2CC[C@H](CN(c3cccc(N4CCC(OC)C4)c3)C(=O)[C@H]3CC[C@H](O)CC3)CC2)cc1C (stereo partly drawn) [Compound 47, trans-4-Hydroxy-N-((trans-4-(4-methoxy-3-methylphenyl)cyclohexyl)methyl)-N-(3-(3-methoxypyrrolidin-1-yl)phenyl)cyclohexanecarboxamide] | 3 to 10
3 | COc1cc(-c2cccc(N(Cc3ccc(-c4ccc(N(C)C)cc4)cc3)C(=O)C3CCCCC3)c2)ncn1 [Compound 35, N-((4′-(Dimethylamino)-[1,1′-biphenyl]-4-yl)methyl)-N-(3-(6-methoxypyrimidin-4-yl)phenyl)cyclohexanecarboxamide] | ≤ 3
4 | CN(C)c1ccc(-c2ccc(CN(C(=O)C3CCCCC3)c3cccc(-c4cc(=O)n(C)s4)c3)cc2)cc1 [Compound 44, N-((4′-(Dimethylamino)-[1,1′-biphenyl]-4-yl)methyl)-N-(3-(2-methyl-3-oxo-2,3-dihydroisothiazol-5-yl)phenyl)cyclohexanecarboxamide] | ≤ 3
5 | COc1ccc(-c2cccc(N(Cc3ccc(-c4ccc(N(C)C)cc4)cc3)C(=O)C3CCCCC3)c2)cc1 [Compound 3.1, N-((4′-(Dimethylamino)-[1,1′-biphenyl]-4-yl)methyl)-N-(4′-methoxy-[1,1′-biphenyl]-3-yl)cyclohexanecarboxamide] | ≤ 3
6 | CN(C)c1ccc(-c2ccc(CN(C(=O)C3CCCCC3)c3cccc(-c4cccnc4)c3)cc2)cc1 [Compound 23, N-((4′-(Dimethylamino)-[1,1′-biphenyl]-4-yl)methyl)-N-(3-(pyridin-3-yl)phenyl)cyclohexanecarboxamide] | 3 to 10
7 | COc1ncc(-c2cccc(N(Cc3ccc(-c4ccc(N(C)C)cc4)cc3)C(=O)C3CCCCC3)c2)s1 [Compound 29, N-((4′-(Dimethylamino)-[1,1′-biphenyl]-4-yl)methyl)-N-(3-(2-methoxythiazol-5-yl)phenyl)cyclohexanecarboxamide] | ≤ 3
8 | Cc1cncc(-c2cccc(N(Cc3ccc(-c4ccc(N(C)C)cc4)cc3)C(=O)C3CCCCC3)c2)c1 [Compound 24, N-((4′-(Dimethylamino)-[1,1′-biphenyl]-4-yl)methyl)-N-(3-(5-methylpyridin-3-yl)phenyl)cyclohexanecarboxamide] | 3 to 10
9 | COc1ccc([C@H]2CC[C@H](CN(c3cccc(N4CCC(OC)CC4)c3)C(=O)[C@H]3CC[C@H](O)CC3)CC2)cc1C [Compound 49, trans-4-Hydroxy-N-((trans-4-(4-methoxy-3-methylphenyl)cyclohexyl)methyl)-N-(3-(4-methoxypiperidin-1-yl)phenyl)cyclohexanecarboxamide] | ≤ 3
10 | CCc1cncc(-c2cccc(N(Cc3ccc(-c4ccc(N(C)C)cc4)cc3)C(=O)C3CCCCC3)c2)c1 [Compound 33, N-((4′-(Dimethylamino)-[1,1′-biphenyl]-4-yl)methyl)-N-(3-(5-ethylpyridin-3-yl)phenyl)cyclohexanecarboxamide] | 3 to 10
11 | CN(C)c1ccc(-c2ccc(CN(C(=O)C3CCCCC3)c3cccc(CCc4ncco4)c3)cc2)cc1 [Compound 22, N-((4′-(Dimethylamino)-[1,1′-biphenyl]-4-yl)methyl)-N-(3-(2-(oxazol-2-yl)ethyl)phenyl)cyclohexanecarboxamide] | ≤ 3
12 | COCC1CCN(c2cccc(N(C[C@H]3CC[C@H](c4ccc(OC)c(C)c4)CC3)C(=O)[C@H]3CC[C@H](O)CC3)c2)C1 (stereo partly drawn) [Compound 48, trans-4-Hydroxy-N-((trans-4-(4-methoxy-3-methylphenyl)cyclohexyl)methyl)-N-(3-(3-(methoxymethyl)pyrrolidin-1-yl)phenyl)cyclohexanecarboxamide] | 3 to 10
13 | COc1ccc(-c2cccc(N(Cc3ccc(-c4ccc(N(C)C)cc4)cc3)C(=O)C3CCCCC3)c2)s1 [Compound 31, N-((4′-(Dimethylamino)-[1,1′-biphenyl]-4-yl)methyl)-N-(3-(5-methoxythiophen-2-yl)phenyl)cyclohexanecarboxamide] | ≤ 3
14 | COc1ccc([C@H]2CC[C@H](CN(c3cccc(N4CC(OC)C4)c3)C(=O)[C@H]3CC[C@H](O)CC3)CC2)cc1C [Compound 45, trans-4-Hydroxy-N-((trans-4-(4-methoxy-3-methylphenyl)cyclohexyl)methyl)-N-(3-(3-methoxyazetidin-1-yl)phenyl)cyclohexanecarboxamide] | ≤ 3
15 | CN(C)c1ccc(-c2ccc(CN(C(=O)C3CCCCC3)c3cccc(/C=C/c4ccccn4)c3)cc2)cc1 [Compound 27, (E)-N-((4′-(Dimethylamino)-[1,1′-biphenyl]-4-yl)methyl)-N-(3-(2-(pyridin-2-yl)vinyl)phenyl)cyclohexanecarboxamide] | ≤ 3
16 | COCC1CN(c2cccc(N(C[C@H]3CC[C@H](c4ccc(OC)c(C)c4)CC3)C(=O)[C@H]3CC[C@H](O)CC3)c2)C1 [Compound 46, trans-4-Hydroxy-N-((trans-4-(4-methoxy-3-methylphenyl)cyclohexyl)methyl)-N-(3-(3-(methoxymethyl)azetidin-1-yl)phenyl)cyclohexanecarboxamide] | ≤ 3
17 | CN(C)c1ccc(-c2ccc(CN(C(=O)C3CCCCC3)c3cccc(/C=C/c4ccncc4)c3)cc2)cc1 [Compound 28, (E)-N-((4′-(Dimethylamino)-[1,1′-biphenyl]-4-yl)methyl)-N-(3-(2-(pyridin-4-yl)vinyl)phenyl)cyclohexanecarboxamide] | 3 to 10
